In patent US20220386573A1, “HUMANIZED MOUSE MODEL WITH HUMAN IMMUNE SYSTEM” (Board of Regents, The University of Texas System, priority 2019, published 2022):

Columns and labels:
Type in all cases: in vivo, mouse
NSGW41 H-Mice [1] = assay: E2 administration in drinking water, tolerability; settings: 1 μM estradiol or above, drinking water ad libitum
Description: (§1) E2 Administration. NSGW41 H-Mice were given drinking water ad libitum containing 1 μM estradiol.

NSGW41 H-Mice [2] = assay: T-independent antibody response to DNP-CpG injection, E2 water vs plain water; settings: DNP-CpG i.p.
Text: While NP16-CGG evaluates the T cell-dependent response, the NSGW41 H-Mice immune system's ability to generate a T cell-independent antibody response was investigated. To do so, 16 mice NSGW41 H-Mice were segregated amongst the E2 and plain water groups and injected with Haptenated TLR9 ligand, DNP-CpG IP. […] Thus, NSGW41 H-Mice receiving E2 treatment can mount a mature antibody response to T-dependent and T-independent antigens complete with class-switched, high affinity antibody production and generation of both plasma and memory B cells.
(§2) Immunizations. NSGW41 H-Mice were injected intraperitoneally with 4-hydroxy-3-nitrophenylacetlyl (NP) conjugated to CGG (NP-CGG) (average: 16 NP molecule conjugated with one CGG molecule; Biosearch; 100 μg) in PBS (100 μl) with Alum (100 μl), or 2,4-Dinitrophenyl conjugated to CpG (DNP-CpG) (1 DNP molecule conjugated with one CpG molecule; Eurofins Genomics; 25 μg) in PBS (100 μl) without adjuvant. Sera were collected before injection and at specified time points after injection.
as §1
(§3) Detection of antibodies. Titers of IgM, IgD, IgG and IgA from in vitro culture supernatants of stimulated human and H-Mice B cells or titers of circulating and/or NP-binding/DNP-binding IgM, IgG, and IgA were measured using specific ELISAs. IgE were detected by sandwich ELISAs, using plates coated with anti-human IgE mAb. Serial two-fold diluted serum samples in PBS-(0.05%) Tween 20 (PBS-Tween 20) were added to the plates and incubated for 2 h at 23° C. After washing with PBS-Tween 20, biotin-detection antibody was added. After a final washing, IgE antibodies were detected using streptavidin-horseradish peroxidase. Antigen specific antibody titers are expressed as relative units (RU), defined as the dilution factor needed to reach 50% saturation binding, as calculated using GraphPad Prism® software (GraphPad).
(§4) Flow cytometry. Total B cells and PBMCs were subject to flow cytometry for pre-and-post isolation phenotypic analysis using the following surface markers and fluorophores: PEcy7-anti-human-CD19 (clone H1B19; Biolegend), PE-anti-human-CD27 (clone M-T271; Biolegend), BV421-anti-human-IgD (clone HB-7; Biolegend), FITC-anti-human-IgG (clone G18-145; BD Pharmingen), APC-anti-human-IgA (clone IS11-8E10; Miltenyi Biotec) and APC-Cy7-anti-IgM (clone MHM-88, Biolegend) and run on a BD LSRII (BD Biosciences) with the FACSDiva software (BD Biosciences). Data were analyzed using FlowJo software (FlowJo LLC).

NSGW41 H-Mice [3] = assay: T-dependent antibody response to NP16-CGG immunization, E2 water vs plain water
Text: To address the antibody response within NSGW41 H-Mice, 16 NSGW41 H-Mice were segregated into two groups of 8 mice each. One group was fed water containing estrogen (NSGW41 H-Mice) and the other plain water (huNSG^W41), each of them were then i.p. injected with NP16-CGG and Alum. The NSGW41 H-Mice were compared to Jackson Labs CD34^+ humanized mice (Jax CD34^+). […] However, the Jax CD34^+ had dramatically lower titers, correlating with reduced human reconstitution. […] (FIG. 3B).
E2 promotes myeloid lineage differentiation and B2 proliferation. Since estrogen administration had such a dynamic impact on the maturation of antibody response within NSGW41 H-Mice, the cellular composition and lymphoid architecture. B1/B2 cell ratios were compared across HIS platforms following immunization with NP-CGG. […] To investigate the formation of lymphoid follicles and germinal center structures, Jax CD34^+, huNSG, and NSGW41 H-Mice spleens were extracted 10 days post-immunization. […] These findings are supported by IHC staining of huCD20, huCD3 and huKI67 showing germinal center structures in NSGW41 H-Mice (FIG. 5D).
as §2, §1, §3, §4

[4] = NP16-CGG and alum i.p., E2-water vs plain water

## C[C@]12CC[C@@H]3c4ccc(O)cc4CC[C@H]3[C@@H]1CC[C@@H]2O [E2, estradiol]
NSGW41 H-Mice [1]
  Adverse effects of drinking water containing estradiol: no adverse effects
NSGW41 H-Mice [2]
  Class-switched IgG and IgA antibody production: dynamically potentiated
  DNP4-binding IgM, IgG and IgA titers: significantly increased
  Numbers of IgG+ and IgA+ B cells, splenic IgD-CD27+ memory B cells and bone marrow CD27+CD38+ plasmablasts/plasma cells: increased numbers
  Total IgM production: comparable
NSGW41 H-Mice [3]; [4]
  Class-switched IgG, IgG1-4, IgA and IgE production: drastically increased
  NP7-binding IgM and IgG antibody titers: significantly greater
  Number of spleen IgG and IgA class-switched effector, IgD-CD27+ memory B cells and bone marrow CD27+CD38+ plasmablasts/plasma cells: increased number
NSGW41 H-Mice [3]; NP16-CGG and alum i.p., estrogen water (NSGW41 H-Mice) vs plain water (huNSGW41)
  IgM serum titers: comparable
NSGW41 H-Mice [3]; lymph nodes, 10 days post-immunization with NP-CGG, estrogen pre-conditioned vs untreated
  Germinal center B cells: two-fold increase
